Literature values, collected in patent US10196371B2, “Compounds for the treatment of HPV-induced carcinoma” (Åbo Akademi, priority 2014, dated 2019).

Legend:
[1] = test system: HPV16 positive cervical cancer cells
[2] = test system: E6 and E7

C=C1C(=O)OC2/C=C(/C)CC/C=C(\C(=O)O)CC/C=C(\C)CCC12 (centres unmarked) [anisomelic acid]
efficiency in inducing apoptosis [1]: good efficiency
protein level expression of E6 and E7 [2]: inhibits
